Source: ChEMBL document CHEMBL1201862, “PubChem BioAssay data set” (2004)
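1) Cells in 96-well plates. 2) Compound, 48 h, 5 concentrations. 3) Linear interpolation between surrounding doses. 4) Unreached endpoint = highest concentration. The concentration for 50% growth inhibition is given as GI50.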 The source made the active and inactive calls. Rule as the data show it: active = GI50 up to about 1.1 µM and inactive = higher.

Tests used:
Assay in all cases: inhibition of tumour cell growth, NCI panel, 48 h
MOLT-4 = test system: MOLT-4
ACHN = test system: ACHN
SK-MEL-2 = test system: SK-MEL-2
OVCAR-8 = test system: OVCAR-8
UO-31 = test system: UO-31
MDA-MB-231 = test system: MDA-MB-231
SNB-75 = test system: SNB-75
MDA-N = test system: MDA-N
U-251 = test system: U-251
HT-29 = test system: HT-29
Malme-3M = test system: Malme-3M
NCI-H23 = test system: NCI-H23
HOP-62 = test system: HOP-62
RPMI-8226 = test system: RPMI-8226
CCRF-CEM = test system: CCRF-CEM
OVCAR-4 = test system: OVCAR-4
A549 = test system: A549
786-0 = test system: 786-0
SK-MEL-28 = test system: SK-MEL-28
SNB-78 = test system: SNB-78

Measured: GI50

Nc1cc(O)c2c(c1O)C(=O)C=CC2=O
inactive: MOLT-4 4.66 µM | ACHN 12.3 µM | SK-MEL-2 14 µM | OVCAR-8 8.24 µM | UO-31 10.9 µM | MDA-MB-231 13.6 µM | SNB-75 30.7 µM | MDA-N 6.1 µM | U-251 18.2 µM | HT-29 4.55 µM | Malme-3M 2.67 µM | NCI-H23 8.99 µM | HOP-62 27.3 µM | RPMI-8226 5.2 µM | CCRF-CEM 2.19 µM | OVCAR-4 10.8 µM | A549 19.6 µM | 786-0 7.89 µM | SK-MEL-28 17.7 µM

NNC1=NC(=O)NC(=O)C1
inactive: MOLT-4 > 100 µM | ACHN > 100 µM | SK-MEL-2 > 100 µM | OVCAR-8 > 100 µM | UO-31 > 100 µM | MDA-MB-231 > 100 µM | SNB-75 > 100 µM | MDA-N > 100 µM | U-251 > 100 µM | HT-29 > 100 µM | Malme-3M > 100 µM | NCI-H23 > 100 µM | HOP-62 > 100 µM | RPMI-8226 > 100 µM | CCRF-CEM 68.1 µM | OVCAR-4 > 100 µM | A549 > 100 µM | 786-0 > 100 µM | SK-MEL-28 > 100 µM

C/C(=N\NS(=O)(=O)c1ccc(C)cc1)c1c(O)cc(C)oc1=O
inactive: MOLT-4 > 100 µM | ACHN > 100 µM | SK-MEL-2 > 100 µM | OVCAR-8 > 100 µM | UO-31 > 100 µM | SNB-75 > 100 µM | U-251 > 100 µM | HT-29 > 100 µM | Malme-3M > 100 µM | NCI-H23 > 100 µM | HOP-62 > 100 µM | CCRF-CEM > 100 µM | OVCAR-4 29.1 µM | A549 > 100 µM | 786-0 > 100 µM | SK-MEL-28 > 100 µM | SNB-78 > 100 µM

CC(=O)n1nc(-c2nc3ccccc3nc2Cl)cc1Cl
inactive: MOLT-4 1.9 µM | ACHN 11.6 µM | SK-MEL-2 25.6 µM | OVCAR-8 26.4 µM | UO-31 1.39 µM | MDA-MB-231 28.8 µM | SNB-75 25.8 µM | MDA-N 8.36 µM | U-251 26.3 µM | HT-29 23 µM | Malme-3M 23.4 µM | NCI-H23 6.24 µM | HOP-62 20.3 µM | RPMI-8226 13.6 µM | CCRF-CEM 2.45 µM | OVCAR-4 19.5 µM | A549 29.5 µM | 786-0 23.6 µM | SK-MEL-28 24.7 µM

CN(C)CCNC(=O)c1cccc2c(NC(CS)C(=O)O)c3ccccc3nc12 (stereo not drawn)
inactive: MOLT-4 3.17 µM | ACHN 4.49 µM | SK-MEL-2 12.1 µM | OVCAR-8 13.5 µM | UO-31 3.6 µM | MDA-MB-231 6.18 µM | SNB-75 14.4 µM | MDA-N 4.55 µM | U-251 6.38 µM | HT-29 4.94 µM | Malme-3M 2.52 µM | NCI-H23 8.22 µM | HOP-62 5.32 µM | RPMI-8226 7.52 µM | CCRF-CEM 6.37 µM | OVCAR-4 17.1 µM | A549 4.62 µM | 786-0 6.64 µM | SK-MEL-28 10.7 µM

O=C(NC(Nc1ccc(F)cc1)(C(F)(F)F)C(F)(F)F)C(C(F)(F)F)C(F)(F)F
inactive: MOLT-4 4.86 µM | ACHN 1.71 µM | SK-MEL-2 3.63 µM | OVCAR-8 3.18 µM | UO-31 2.39 µM | MDA-MB-231 52 µM | SNB-75 36.5 µM | MDA-N 9.84 µM | U-251 57.4 µM | HT-29 15.5 µM | Malme-3M 48 µM | NCI-H23 18.1 µM | HOP-62 99.1 µM | RPMI-8226 8.11 µM | CCRF-CEM 3.13 µM | OVCAR-4 5.52 µM | A549 5.53 µM | 786-0 > 54.1 µM | SK-MEL-28 17.5 µM

CCCN(CCC)C(=O)C(=O)c1c(N)[nH]n(-c2ccccc2)c1=O
inactive: MOLT-4 > 100 µM | ACHN > 100 µM | SK-MEL-2 > 100 µM | OVCAR-8 > 100 µM | UO-31 > 100 µM | U-251 > 100 µM | HT-29 > 100 µM | Malme-3M > 100 µM | NCI-H23 > 100 µM | RPMI-8226 > 100 µM | CCRF-CEM 93.3 µM | OVCAR-4 > 100 µM | A549 > 100 µM | 786-0 > 100 µM | SNB-78 > 100 µM

COC(=O)C(=O)CC(=O)CCn1[nH]c(=O)c(Cl)c(Cl)c1=O
inactive: ACHN > 100 µM | SK-MEL-2 > 100 µM | OVCAR-8 > 100 µM | UO-31 > 100 µM | SNB-75 > 100 µM | U-251 > 100 µM | HT-29 > 100 µM | Malme-3M > 100 µM | NCI-H23 > 100 µM | HOP-62 > 100 µM | OVCAR-4 > 100 µM | A549 > 100 µM | 786-0 > 100 µM | SK-MEL-28 > 100 µM | SNB-78 > 100 µM

c1ccc2c(c1)SC(=C1Sc3ccccc3S1)S2
inactive: MOLT-4 > 100 µM | ACHN > 100 µM | OVCAR-8 > 100 µM | UO-31 > 100 µM | SNB-75 22.4 µM | U-251 > 100 µM | HT-29 > 100 µM | Malme-3M > 100 µM | NCI-H23 > 100 µM | HOP-62 > 100 µM | CCRF-CEM > 100 µM | OVCAR-4 > 100 µM | A549 > 100 µM | 786-0 > 100 µM | SK-MEL-28 > 100 µM | SNB-78 > 100 µM

N#Cc1c(/C=C/c2ccccc2)c2c([nH]c1=S)CCCCC2
inactive: MOLT-4 > 100 µM | ACHN > 100 µM | SK-MEL-2 > 100 µM | OVCAR-8 > 100 µM | UO-31 > 100 µM | MDA-MB-231 > 100 µM | SNB-75 > 100 µM | MDA-N > 100 µM | U-251 82.2 µM | HT-29 > 100 µM | Malme-3M > 100 µM | NCI-H23 > 100 µM | HOP-62 > 100 µM | RPMI-8226 > 100 µM | CCRF-CEM > 100 µM | OVCAR-4 > 100 µM | A549 > 100 µM | 786-0 > 100 µM | SK-MEL-28 > 100 µM

Cc1cccc(C)c1NC(=O)C1=NC(=S)NC(c2ccccc2)C1c1nc2ccccc2s1 (stereo not drawn)
inactive: MOLT-4 > 100 µM | ACHN > 100 µM | SK-MEL-2 > 100 µM | OVCAR-8 > 100 µM | UO-31 > 100 µM | SNB-75 > 100 µM | U-251 > 100 µM | HT-29 > 100 µM | Malme-3M > 100 µM | NCI-H23 > 100 µM | CCRF-CEM > 100 µM | OVCAR-4 > 100 µM | A549 > 100 µM | 786-0 > 100 µM | SK-MEL-28 > 100 µM | SNB-78 > 100 µM
